Data: patent US20130011870A1, “Method For Assaying Diseases Characterized By Dyslipidemia” (priority 2010, published 2013)

The molecules below were run on serine palmitoyltransferase (SPT) in SPTLC3 overexpressing HEK293 cells (assay: In vitro SPT activity with various acyl-CoA substrates (Example 1, FIG. 3)). Conditions: acyl-CoA 50 μM; activity with palmitoyl-CoA defined as 100%.
Assay type: biochemical
Method: FIG. 3 In vitro SPT activity with various acyl-CoA substrates (C12-CoA, C14-CoA, C16-CoA and C18:1-CoA) in control, SPTLC1, SPTLC2 and SPTLC3 overexpressing HEK293 cells. […] (For comparison the activity with palmitoyl-CoA is defined as 100%.)
All acyl-CoAs were used at the same concentration (50 μM).

SMILES	SPT activity with the acyl-CoA substrate in SPTLC3 overexpressing cells compared with control, SPTLC1 and SPTLC2 cells
CCCCCCCCCCCCCCCCCC(=O)SCCNC(=O)CCNC(=O)[C@H](O)C(C)(C)COP(=O)(O)OP(=O)(O)OC[C@H]1O[C@@H](n2cnc3c(N)ncnc32)[C@H](O)[C@@H]1OP(=O)(O)O [stearoyl-CoA]	comparable for all cell lines
CCCCCCCC/C=C\CCCCCCCC(=O)SCCNC(=O)CCNC(=O)[C@H](O)C(C)(C)COP(=O)(O)OP(=O)(O)OC[C@H]1O[C@@H](n2cnc3c(N)ncnc32)[C@H](O)[C@@H]1OP(=O)(O)O [oleoyl-CoA]	comparable for all cell lines
CCCCCCCCCCCC(=O)SCCNC(=O)CCNC(=O)[C@H](O)C(C)(C)COP(=O)(O)OP(=O)(O)OC[C@H]1O[C@@H](n2cnc3c(N)ncnc32)[C@H](O)[C@@H]1OP(=O)(O)O [lauryl-CoA]	significantly higher activity
